Source: paper PMC9067978, “Design, synthesis, and molecular docking studies of novel pomalidomide-based PROTACs as potential anti-cancer agents targeting EGFR^WT and EGFR^T790M” (Journal of Enzyme Inhibition and Medicinal Chemistry, 2022)
Entries after “also recorded” stand apart in the source; their conditions may differ.

Assays:
A549 = assay: MTT anti-proliferative assay, A549; conditions: Homo sapiens, A549, read-out: IC50 A549
Description: (§5) The anti-proliferative activity was quantified in the following way. At a density of 3–8 × 10^3 cells per well, human cancer cell lines were introduced to 96-well plates. The wells were then incubated at 37 °C for 12 hours in 5% CO2 incubator. To determine the DMSO content, the culture media was swapped with 0.1 ml of fresh medium containing graded amounts of the test compounds for each well. Incubation time for the wells was two days. The cells were then cultured in 100 µl MTT solution (5 µg ml^−1) for another 4 hours in each well.
(§6) The absorbance of each well was measured at 490 nm with an automated ELISA reader system (TECAN, CHE) after MTT-formazan crystals were dissolved in 100 µl of DMSO. The IC50 values were calculated using nonlinear regression fitting models (Graph Pad, Prism Version 5). The results were expressed as means ± SD and were based on the average of three separate, duplicate trials.

HCT-116 = assay: MTT anti-proliferative assay, HCT-116; conditions: Homo sapiens, HCT-116, read-out: IC50 HCT-116
Description: as §5, §6

EGFR^WT = target: T1, EGFR^WT (Homo sapiens, UniProt P00533); assay: EGFR^WT kinase inhibitory assay (HTRF); assay type: biochemical; conditions: ATP 1.65 µM, mean ± S.D of three experiments
T1 construct: purchased Sigma
Description: (§1) This test used HTRF[44] assay with EGFR^WT and EGFR^T790M (Sigma). For the first 5 minutes, the evaluated compounds were incubated with EGFR^WT and/or EGFR^T790M and their substrates in the enzymatic buffer. […] The assay was performed at 37 °C for 30 minutes. The addition of EDTA-containing detection reagents halted the process. After one hour detection period, GraphPad Prism 5.0 was used to calculate the IC50 values. For each concentration, three separate trials were carried out.

HepG-2 = assay: MTT anti-proliferative assay, HepG-2; conditions: Homo sapiens, HepG2, read-out: IC50 HepG-2
Description: as §5, §6

MCF-7 = assay: MTT anti-proliferative assay, MCF-7; conditions: Homo sapiens, MCF7, read-out: IC50 MCF-7
Description: as §5, §6

EGFR^T790M = target: T2, EGFR^T790M (Homo sapiens, UniProt P00533, T790M); assay: EGFR^T790M kinase inhibitory assay (HTRF); assay type: biochemical; conditions: ATP 1.65 µM, mean ± S.D of three experiments, read-out: EGFR^790M IC50
T2 construct: purchased Sigma
Description: as §1

Akt phosphorylation = assay: Western blotting, Akt phosphorylation in A549 cells; assay type: cell-based, human; conditions: A549 cells, 0.1, 0.3 and 1 µM, erlotinib for comparison
Description: (§2) At a concentration of 100 nM, the time-dependent degradation activities of compounds 15–21 were also examined (Figure 5(A)).
(§3) Figure 5. (A) EGFR time-dependent degradation by compound 16 in A549 cell lines. Cells were treated with100 nM of 15–21 for indicated time points. Western blotting was used to evaluate EGFR protein, and densitometry was used to measure EGFR degradation, which was adjusted to the density of β-actin protein (n ¼2). (B) Compounds 15 and 16 have EGFR degradation and phosphorylation inhibitory action in A549 cells. The cells were exposed to concentrations of 0.1, 0.3, and 1 µM. Erlotinib were utilised for comparison. […]
(§4) Cells were seeded in 6-well plates at 1 × 10^6 per well, incubated at 37 °C with 5% CO2 for 24 h before drug exposure. […] The results were detected by an enhanced chemiluminescence system (Mill-pore). […]

EGFR phosphorylation = assay: Western blotting, EGFR phosphorylation in A549 cells; assay type: cell-based, human; conditions: A549 cells, 0.1, 0.3 and 1 µM, erlotinib for comparison
Description: as §2, §3, §4

EGFR = target: T3, EGFR (Homo sapiens, UniProt P00533); assay: Western blotting, EGFR degradation in A549 cells; assay type: cell-based
T3 construct: EGFR degradation activities of compounds in A549 cells; endogenous in cells; host or cells: A549
Description: Following this, the target compounds 15–21 tethering various E3 ligases ligand were chosen as representative PROTACs for further degradation study based on temporal data.
Figure 4. (A) EGFR degradation activities of compounds in A549 cells. Cells were treated for 48 h with concentration of 0.1 and 1 µM. (B) Effects of concentration-dependent EGFR degradation by compounds 15–21 in A549 cell lines. Cells were treated for 48 h with a concentration from 1 nM to 10 µM. EGFR protein was examined by Western blotting analysis and EGFR degradation rate was quantified by densitometry and normalised to the corresponding density of β-actin protein (n ¼ 3). TEXT PRINTED IN THE PICTURE: (B) Comp 15: DC50 = 43.4 nm | (B) Comp 16: DC50= 32.9 nm DOUBTS OF THE COPYIST ABOUT THIS PICTURE: Comp 15, DC50: 43.4 is small blurred print; the 3 could be 8 and the digits are not certain / Comp 16, DC50: 32.9 is small blurred print; the 3 could be 8 and the 9 could be 8 or 0
We set nine concentration gradients ranging from […] to 10 µM to determine the degradation activity of all tested compounds and calculated the DC50 (concentration that caused deletion of 50% of EGFR) values.
as §2
Figure 5. (A) EGFR time-dependent degradation by compound 16 in A549 cell lines. Cells were treated with100 nM of 15–21 for indicated time points. Western blotting was used to evaluate EGFR protein, and densitometry was used to measure EGFR degradation, which was adjusted to the density of β-actin protein (n ¼2). (B) Compounds 15 and 16 have EGFR degradation and phosphorylation inhibitory action in A549 cells. The cells were exposed to concentrations of 0.1, 0.3, and 1 µM. Erlotinib were utilised for comparison. TEXT PRINTED IN THE PICTURE: (A) Comp 15: Dmax = 85 % @ 96 h; Degradation: 9 (4 h; 100 nM); Degradation: 22 (8 h; 100 nM); Degradation: 42 (12 h; 100 nM); Degradation: 83 (24 h; 100 nM); Degradation: 84 (36 h; 100 nM); Degradation: 82 (48 h; 100 nM); Degradation: 82 (72 h; 100 nM); Degradation: 85 (96 h; 100 nM) | (A) Comp 16: Dmax = 96 % @72 h; Degradation: 32 (4 h; 100 nM); Degradation: 43 (8 h; 100 nM); Degradation: 67 (12 h; 100 nM); Degradation: 69 (24 h; 100 nM); Degradation: 78 (36 h; 100 nM); Degradation: 85 (48 h; 100 nM); Degradation: 96 (72 h; 100 nM); Degradation: 94 (96 h; 100 nM) DOUBTS OF THE COPYIST ABOUT THIS PICTURE: Comp 15, Dmax: print is blurred, 85 % @ 96 h is the best reading (85 or 86) / Comp 16, Dmax: print is small and blurred, 96 % @72 h is the best reading (96 or 95; the % sign is unclear) / Comp 15, Degradation row: print is blurred, 83/84/82/82/85 are best readings (3, 5, 8 are hard to tell apart) / Comp 16, Degradation row: print is blurred, 67/69/78/85/96/94 are best readings (5, 6, 8, 9 are hard to tell apart) / The Degradation rows are printed under the blot lanes with no unit. The value 0 under the 0.1 % DMSO control lane was not assigned to any compound.
Cells were seeded in 6-well plates at 1 × 10^6 per well, incubated at 37 °C with 5% CO2 for 24 h before drug exposure. Cells were treated with different concentrations of synthesised compounds for […], then collected and suspended in lysis buffer (Beyotime) and centrifuged for 20 min at 12000 rpm, later removed the insoluble material. […] The results were detected by an enhanced chemiluminescence system (Mill-pore). […]

T2 sequence (P00533 25-1210 T790M): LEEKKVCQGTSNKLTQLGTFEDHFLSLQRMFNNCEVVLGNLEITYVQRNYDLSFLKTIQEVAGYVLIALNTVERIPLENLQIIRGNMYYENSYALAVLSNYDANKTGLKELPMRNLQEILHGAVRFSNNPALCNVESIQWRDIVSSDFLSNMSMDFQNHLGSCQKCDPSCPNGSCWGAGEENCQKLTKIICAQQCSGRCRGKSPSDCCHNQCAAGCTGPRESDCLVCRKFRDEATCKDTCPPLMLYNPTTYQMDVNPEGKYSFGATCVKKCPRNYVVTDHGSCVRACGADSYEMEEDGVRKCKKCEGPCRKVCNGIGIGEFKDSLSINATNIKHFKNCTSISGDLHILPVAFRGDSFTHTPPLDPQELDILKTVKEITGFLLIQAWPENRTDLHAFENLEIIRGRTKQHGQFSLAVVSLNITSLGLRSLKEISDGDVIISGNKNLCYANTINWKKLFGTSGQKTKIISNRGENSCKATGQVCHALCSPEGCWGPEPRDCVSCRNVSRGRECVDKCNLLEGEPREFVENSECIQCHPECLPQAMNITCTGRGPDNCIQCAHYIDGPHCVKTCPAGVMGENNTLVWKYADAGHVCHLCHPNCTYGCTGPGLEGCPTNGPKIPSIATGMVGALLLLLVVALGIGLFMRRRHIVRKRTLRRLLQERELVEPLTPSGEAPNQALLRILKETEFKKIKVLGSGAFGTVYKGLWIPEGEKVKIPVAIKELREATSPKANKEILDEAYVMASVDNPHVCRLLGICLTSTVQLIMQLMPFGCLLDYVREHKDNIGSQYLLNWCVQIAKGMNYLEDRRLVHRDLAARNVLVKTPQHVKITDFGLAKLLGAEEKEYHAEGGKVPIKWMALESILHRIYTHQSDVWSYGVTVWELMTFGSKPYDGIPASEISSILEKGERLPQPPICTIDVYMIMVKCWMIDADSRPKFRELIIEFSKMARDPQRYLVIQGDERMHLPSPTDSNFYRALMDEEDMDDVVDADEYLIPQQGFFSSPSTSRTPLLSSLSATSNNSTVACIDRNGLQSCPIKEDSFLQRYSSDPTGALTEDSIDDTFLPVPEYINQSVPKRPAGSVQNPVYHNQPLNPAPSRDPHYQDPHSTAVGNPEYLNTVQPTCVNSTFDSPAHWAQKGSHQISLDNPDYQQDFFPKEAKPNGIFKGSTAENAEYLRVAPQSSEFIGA
T1 sequence (P00533 25-1210): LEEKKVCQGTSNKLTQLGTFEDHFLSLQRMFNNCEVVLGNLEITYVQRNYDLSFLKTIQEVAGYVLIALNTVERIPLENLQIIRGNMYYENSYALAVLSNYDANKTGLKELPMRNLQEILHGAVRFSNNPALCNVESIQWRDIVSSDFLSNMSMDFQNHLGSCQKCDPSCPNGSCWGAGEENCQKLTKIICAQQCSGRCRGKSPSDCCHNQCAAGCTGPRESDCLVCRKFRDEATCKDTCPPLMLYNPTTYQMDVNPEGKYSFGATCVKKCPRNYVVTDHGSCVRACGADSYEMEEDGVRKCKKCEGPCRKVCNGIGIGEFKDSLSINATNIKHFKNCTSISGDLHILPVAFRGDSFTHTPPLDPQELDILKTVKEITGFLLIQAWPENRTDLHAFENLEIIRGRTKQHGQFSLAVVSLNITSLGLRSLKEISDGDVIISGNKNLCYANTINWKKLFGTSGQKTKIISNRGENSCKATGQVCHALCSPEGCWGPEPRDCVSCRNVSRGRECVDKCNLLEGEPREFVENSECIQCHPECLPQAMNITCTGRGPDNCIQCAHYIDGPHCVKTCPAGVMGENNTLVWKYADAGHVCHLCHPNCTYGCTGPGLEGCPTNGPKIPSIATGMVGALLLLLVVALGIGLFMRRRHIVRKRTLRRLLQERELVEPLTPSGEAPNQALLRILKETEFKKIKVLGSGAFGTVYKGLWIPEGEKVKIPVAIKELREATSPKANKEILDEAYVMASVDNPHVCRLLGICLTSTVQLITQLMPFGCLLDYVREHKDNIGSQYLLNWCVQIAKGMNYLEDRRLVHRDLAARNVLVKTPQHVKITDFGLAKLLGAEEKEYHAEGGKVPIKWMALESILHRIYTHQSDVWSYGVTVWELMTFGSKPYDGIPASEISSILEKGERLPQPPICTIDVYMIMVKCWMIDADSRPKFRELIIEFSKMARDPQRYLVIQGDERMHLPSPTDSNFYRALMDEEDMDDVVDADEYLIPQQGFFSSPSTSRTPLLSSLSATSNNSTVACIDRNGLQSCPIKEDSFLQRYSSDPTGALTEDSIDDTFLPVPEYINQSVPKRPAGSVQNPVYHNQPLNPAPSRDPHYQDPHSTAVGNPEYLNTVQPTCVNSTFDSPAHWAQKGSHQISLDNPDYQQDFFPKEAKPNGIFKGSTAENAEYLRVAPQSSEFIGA
T3 sequence (P00533 25-1210): as above

IC50 (A549) [µM] | IC50 (HCT-116) [µM] | IC50 (EGFR^WT) [nM] | IC50 (MCF-7) [µM] | IC50 (EGFR^T790M) [µM] | Dmax at 0.1 µM (EGFR; A549, A549 cells, 100 nM, time course, reached at 96 h (15) and 72 h (16), read-out: Dmax, maximum EGFR degradation rate) [%] | DC50 (EGFR; A549 cells, 48 h, Western blotting densitometry, read-out: DC50 (concentration that caused deletion of 50% of EGFR)) [nM] | Compound | IC50 (HepG-2) [µM] | inhibition of Akt phosphorylation, in words (Akt phosphorylation) | inhibition of EGFR phosphorylation, in words (EGFR phosphorylation)
8.27 ± 0.25 | 12.3 ± 0.71 | 770 ± 50 | 14.3 ± 0.69 | 16.3 ± 0.69 | – | – | O=C(CSc1nc2ccccc2o1)NNCCOCCOCC(=O)Nc1cccc2c1C(=O)N(C1CCC(=O)NC1=O)C2=O (centres unmarked) [Compound 20, 2-(2-(2-(2-(2-(benzo[d]oxazol-2-ylthio)acetyl)hydrazinyl)ethoxy)ethoxy)-N-(2-(2,6-dioxopiperidin-3-yl)-1,3-dioxoisoindolin-4-yl)acetamide] | 9.26 ± 0.39 | – | –
3.19 ± 0.19 | 6.29 ± 0.35 | 190 ± 90 | 7.96 ± 0.35 | 6.26 ± 0.32 | – | – | O=C1CCC(N2C(=O)c3cccc(NC(=O)COCCOCCOCCNC(=O)c4nc5ccccc5[nH]c4=O)c3C2=O)C(=O)N1 (centres unmarked) [Compound 17, N-(2-(2-(2-(2-(2-(2,6-dioxopiperidin-3-yl)-1,3-dioxoisoindolin-4-ylamino)-2-oxoethoxy)ethoxy)ethoxy)ethyl)-3-oxo-3,4-dihydroquinoxaline-2-carboxamide] | 4.09 ± 0.11 | – | –
– | 5.52 ± 0.25 | – | 7.89 ± 0.55 | – | – | – | COc1cccc2c1C(=O)c1c(O)c3c(c(O)c1C2=O)C[C@@](O)(C(=O)CO)C[C@@H]3O[C@H]1C[C@H](N)[C@H](O)[C@H](C)O1 [Doxorubicin, reference compound] | 6.22 ± 0.45 | – | –
7.27 ± 0.16 | 13 ± 0.52 | 2270 ± 160 | 16.3 ± 0.71 | 15.3 ± 0.61 | – | – | O=C(CSc1nc2ccccc2s1)NNCCOCCOCC(=O)Nc1cccc2c1C(=O)N(C1CCC(=O)NC1=O)C2=O (centres unmarked) [Compound 21, 2-(2-(2-(2-(2-(benzo[d]thiazol-2-ylthio)acetyl)hydrazinyl)ethoxy)ethoxy)-N-(2-(2,6-dioxopiperidin-3-yl)-1,3-dioxoisoindolin-4-yl)acetamide] | 9.86 ± 0.37 | – | –
19.3 ± 1.85 | 16.8 ± 1.65 | – | 21.8 ± 1.85 | – | – | – | C#Cc1cccc(Nc2ncnc3cc(OCCOC)c(OCCOC)cc23)c1 [Erlotinib, reference compound] | 13.1 ± 1.28 | – | –
3.09 ± 0.15 | 6.19 ± 0.27 | 220 ± 50 | 7.87 ± 0.31 | 6.89 ± 0.31 | 86 | 43.4 | O=C1CCC(N2C(=O)c3cccc(NC(=O)COCCOCCn4nc5[nH]c6ccccc6nc-5c4=O)c3C2=O)C(=O)N1 (centres unmarked) [Compound 15, N-(2-(2,6-dioxopiperidin-3-yl)-1,3-dioxoisoindolin-4-yl)-2-(2-(2-(3-oxo-3,9-dihydro-2H-pyrazolo[3,4-b]quinoxalin-2-yl)ethoxy)ethoxy)acetamide] | 3.89 ± 0.05 | effectively displayed inhibitory activity; also recorded: comparable to erlotinib | effectively displayed inhibitory activity
6.54 ± 0.32 | 9.12 ± 0.38 | 3020 ± 120 | 16.3 ± 0.71 | 14.1 ± 0.51 | – | – | CN1C(=O)C(=Nc2ccc(C(=O)NNCCOCCOCC(=O)Nc3cccc4c3C(=O)N(C3CCC(=O)NC3=O)C4=O)cc2)c2ccccc21 (centres unmarked) [Compound 19, N-(2-(2,6-dioxopiperidin-3-yl)-1,3-dioxoisoindolin-4-yl)-2-(2-(2-(2-(4-(1-methyl-2-oxoindolin-3-ylideneamino)benzoyl)hydrazinyl)ethoxy)ethoxy)acetamide] | 8.26 ± 0.36 | – | –
4.67 ± 0.13 | 6.79 ± 0.27 | 650 ± 30 | 8.26 ± 0.25 | 8.16 ± 0.28 | – | – | O=C1CCC(N2C(=O)c3cccc(NC(=O)COCCOCCNNC(=O)c4ccc(N=C5C(=O)Nc6ccccc65)cc4)c3C2=O)C(=O)N1 (centres unmarked) [Compound 18, N-(2-(2,6-dioxopiperidin-3-yl)-1,3-dioxoisoindolin-4-yl)-2-(2-(2-(2-(4-((2-oxoindolin-3-ylidene)amino)benzoyl)hydrazineyl)ethoxy)ethoxy)acetamide] | 6.26 ± 0.56 | – | –
